The text below walks through data of ChEMBL document CHEMBL5634148, “Synthesis and evaluation of novel pleuromutilin derivatives targeting the 50S ribosomal subunit for antibacterial ability” (Eur J Med Chem, 2023).

In brackets after ≈: the same amount, converted by molar mass.

In one data set the test system is Escherichia coli. Nature of the data set: Antibacterial activity against Escherichia coli CICC 10389 assessed as bacterial growth inhibition incubated for 18 to 24 hrs by NCCLS based assay. The class given is functional. Conditions: time 18-24 hrs.
A further data set deals with Pasteurella multocida. As to the kind of experiment: Antibacterial activity against Pasteurella multocida CVCC 1659 assessed as bacterial growth inhibition incubated for 18 to 24 hrs by NCCLS based assay. The class given is functional. Conditions: time 18-24 hrs.
For data set [1], the system named is Staphylococcus aureus. As to the kind of experiment: Antibacterial activity against Staphylococcus aureus ATCC 25923 assessed as bacterial growth inhibition incubated for 18 to 24 hrs by NCCLS based assay. Conditions: time 18-24 hrs. The class given is functional.
A further data set has as its system Enterococcus faecalis. Nature of the data set: Antibacterial activity against Enterococcus faecalis assessed as bacterial growth inhibition incubated for 18 to 24 hrs by NCCLS based assay. The class given is functional. Conditions: time 18-24 hrs.
Data set [2] concerns Staphylococcus aureus. Nature of the data set: Antibacterial activity against methicillin-resistant Staphylococcus aureus BNCC 337371 assessed as bacterial growth inhibition incubated for 18 to 24 hrs by NCCLS based assay. The class given is functional. Conditions: time 18-24 hrs.
The test system of data set [3] is Staphylococcus epidermidis. Nature of the data set: Antibacterial activity against methicillin-resistant Staphylococcus epidermidis ATCC 51625 assessed as bacterial growth inhibition incubated for 18 to 24 hrs by NCCLS based assay. The class given is functional. Conditions: time 18-24 hrs.
The subject of a further data set is Streptococcus agalactiae. Nature of the data set: Antibacterial activity against Streptococcus agalactiae assessed as bacterial growth inhibition incubated for 18 to 24 hrs by NCCLS based assay. The conditions noted are these: time 18-24 hrs. The class given is functional.
Data set [4] concerns Staphylococcus aureus. As to the kind of experiment: Bactericidal activity against Staphylococcus aureus incubated for 24 hrs by time kill assay. The class given is functional, organism-based.
The test system of data set [5] is Staphylococcus aureus. As to the kind of experiment: Bactericidal activity against methicillin-resistant Staphylococcus aureus ATCC 29213 incubated for 24 hrs by time kill assay. The class given is functional, organism-based.
The test system of data set [6] is Staphylococcus aureus. Nature of the data set: Antibacterial activity against methicillin-resistant Staphylococcus aureus infected in neutropenic Balb/c mouse model assessed as reduction in bacterial load in lungs at 15 mg/kg, iv measured after 5 days. The class given is functional. The conditions noted are these: time 5 day.
A short description of data set [7]: Toxicity in neutropenic Balb/c mouse model infected with methicillin-resistant Staphylococcus aureus assessed as animal survival at 40 mg/kg, iv measured for 7 days. The class given is organism-based. Conditions: in vivo, 168 h, time 7 day.
The subject of data set [8] is Staphylococcus aureus. As to the kind of experiment: Antibacterial activity against methicillin-resistant Staphylococcus aureus infected in neutropenic Balb/c mouse model assessed as reduction in bacterial load in lungs at 40 mg/kg, iv measured after 5 days. The class given is functional. The conditions noted are these: time 5 day.

As to `C=C[C@]1(C)C[C@@H](OC(=O)CSc2ncnc(OC)n2)[C@]2(C)[C@H](C)CC[C@]3(CCC(=O)[C@H]32)[C@@H](C)[C@@H]1O`, the MIC (as a rule, the lowest concentration found to suppress growth) is at least 64 µg/mL in the data set with Escherichia coli; at least 64 µg/mL with Pasteurella multocida; 0.125 µg/mL (≈ 0.248 µM) in the data set with Staphylococcus aureus [1]; 32 µg/mL (≈ 63.5 µM) with Enterococcus faecalis; 0.25 µg/mL (≈ 0.496 µM) with Staphylococcus aureus [2]; 0.25 µg/mL (≈ 0.496 µM) in [3]. For the same compound, the MIC in the data set on Streptococcus agalactiae came out at 0.125 µg/mL (≈ 0.248 µM).
For `C=C[C@]1(C)C[C@@H](OC(=O)CSc2ncnc(OCCCC)n2)[C@]2(C)[C@H](C)CC[C@]3(CCC(=O)[C@H]32)[C@@H](C)[C@@H]1O`, the MIC with Escherichia coli is at least 64 µg/mL; in the data set with Pasteurella multocida it was at least 64 µg/mL; with Staphylococcus aureus [1], 0.125 µg/mL (≈ 0.229 µM); with Enterococcus faecalis, at least 64 µg/mL; in the data set with Staphylococcus aureus [2] it was 0.5 µg/mL (≈ 0.916 µM); in data set [3] it was 0.25 µg/mL (≈ 0.458 µM). In addition, the MIC in the data set with Streptococcus agalactiae worked out at 4 µg/mL (≈ 7.33 µM).
With `C=C[C@]1(C)C[C@@H](OC(=O)CSc2ncnc(N3CCCC3)n2)[C@]2(C)[C@H](C)CC[C@]3(CCC(=O)[C@H]32)[C@@H](C)[C@@H]1O`, the MIC with Escherichia coli was at least 64 µg/mL; with Pasteurella multocida, at least 64 µg/mL; with Staphylococcus aureus [1], 0.125 µg/mL (≈ 0.23 µM); with Enterococcus faecalis it was 32 µg/mL (≈ 59 µM); in the data set with Staphylococcus aureus [2], 0.125 µg/mL (≈ 0.23 µM); in data set [3] it was 0.25 µg/mL (≈ 0.461 µM). The MIC in the data set on Streptococcus agalactiae came out at 0.25 µg/mL (≈ 0.461 µM).
Take `C=C[C@]1(C)C[C@@H](OC(=O)CSc2ncnc(N3CCN(C)CC3)n2)[C@]2(C)[C@H](C)CC[C@]3(CCC(=O)[C@H]32)[C@@H](C)[C@@H]1O`: the MIC with Escherichia coli was at least 64 µg/mL; with Pasteurella multocida, at least 64 µg/mL; with Staphylococcus aureus [1], 0.125 µg/mL (≈ 0.219 µM); in the data set with Enterococcus faecalis, at least 64 µg/mL; with Staphylococcus aureus [2], 0.125 µg/mL (≈ 0.219 µM); in [3], 0.125 µg/mL (≈ 0.219 µM). The MIC with Streptococcus agalactiae was found to be 4 µg/mL (≈ 7 µM).
For `C=C[C@]1(C)C[C@@H](OC(=O)CSc2ncnc(NCCNC)n2)[C@]2(C)[C@H](C)CC[C@]3(CCC(=O)[C@H]32)[C@@H](C)[C@@H]1O`, the MIC in the data set with Escherichia coli is at least 64 µg/mL; with Pasteurella multocida it was at least 64 µg/mL; in the data set with Staphylococcus aureus [1], 0.063 µg/mL (≈ 0.115 µM); in the data set with Enterococcus faecalis it was 32 µg/mL (≈ 58.6 µM); in the data set with Staphylococcus aureus [2], 0.25 µg/mL (≈ 0.458 µM); in data set [3], 0.25 µg/mL (≈ 0.458 µM). In the data set on Streptococcus agalactiae, the MIC came out at 0.013 µg/mL (≈ 0.0238 µM).
Take `C=C[C@]1(C)C[C@@H](OC(=O)CSc2ncnc(NCC)n2)[C@]2(C)[C@H](C)CC[C@]3(CCC(=O)[C@H]32)[C@@H](C)[C@@H]1O`: the MIC with Escherichia coli was at least 64 µg/mL; in the data set with Pasteurella multocida it was at least 64 µg/mL; in the data set on Staphylococcus aureus [1] it was 0.125 µg/mL (≈ 0.242 µM); in the data set with Enterococcus faecalis, 16 µg/mL (≈ 31 µM); with Staphylococcus aureus [2], 0.125 µg/mL (≈ 0.242 µM); in [3], 0.125 µg/mL (≈ 0.242 µM). The MIC with Streptococcus agalactiae is 0.013 µg/mL (≈ 0.0252 µM).
Take `C=C[C@]1(C)C[C@@H](OC(=O)CSc2ncnc(Cl)n2)[C@]2(C)[C@H](C)CC[C@]3(CCC(=O)[C@H]32)[C@@H](C)[C@@H]1O`: the MIC was at least 64 µg/mL in the data set with Escherichia coli; at least 64 µg/mL with Pasteurella multocida; 4 µg/mL (≈ 7.87 µM) in the data set with Staphylococcus aureus [1]; 32 µg/mL (≈ 63 µM) in the data set on Enterococcus faecalis; 8 µg/mL (≈ 15.7 µM) in the data set with Staphylococcus aureus [2]; 8 µg/mL (≈ 15.7 µM) in data set [3]. For the same compound, the MIC with Streptococcus agalactiae came to 2 µg/mL (≈ 3.94 µM).
Regarding `C=C[C@]1(C)C[C@@H](OC(=O)CSc2ncnc(N3CCOCC3)n2)[C@]2(C)[C@H](C)CC[C@]3(CCC(=O)[C@H]32)[C@@H](C)[C@@H]1O`, the MIC is at least 64 µg/mL in the data set with Escherichia coli; at least 64 µg/mL in the data set on Pasteurella multocida; 0.063 µg/mL (≈ 0.113 µM) in the data set on Staphylococcus aureus [1]; 32 µg/mL (≈ 57.3 µM) in the data set on Enterococcus faecalis; 0.063 µg/mL (≈ 0.113 µM) in the data set on Staphylococcus aureus [2]; 0.125 µg/mL (≈ 0.224 µM) in data set [3]. In the data set on Streptococcus agalactiae, the MIC stood at 0.125 µg/mL (≈ 0.224 µM). For the same compound, the Activity result with Staphylococcus aureus [4] and in the data set with Staphylococcus aureus [5] was “Dose-Dependent Effect” throughout.
On to `C=C[C@]1(C)C[C@@H](OC(=O)CSc2ncnc(N3CCCCC3)n2)[C@]2(C)[C@H](C)CC[C@]3(CCC(=O)[C@H]32)[C@@H](C)[C@@H]1O`, for which the MIC in the data set on Escherichia coli was at least 64 µg/mL; in the data set on Pasteurella multocida it was at least 64 µg/mL; with Staphylococcus aureus [1], 0.063 µg/mL (≈ 0.113 µM); in the data set with Enterococcus faecalis, 32 µg/mL (≈ 57.5 µM); in the data set on Staphylococcus aureus [2], 0.125 µg/mL (≈ 0.225 µM); in data set [3], 0.125 µg/mL (≈ 0.225 µM). Also, the MIC in the data set on Streptococcus agalactiae turned out to be 0.5 µg/mL (≈ 0.898 µM).
For `C=C[C@]1(C)C[C@@H](OC(=O)CSCCN(CC)CC)[C@]2(C)[C@H](C)CC[C@]3(CCC(=O)[C@H]32)[C@@H](C)[C@@H]1O` [TIAMULIN], the Activity with Staphylococcus aureus [6] is 1.24 log10CFU/ml; in [7], 50%; in the data set with Staphylococcus aureus [8], about 2 log10CFU/ml. Moreover, the MIC was at least 64 µg/mL in the data set with Escherichia coli; at least 64 µg/mL in the data set on Pasteurella multocida; 0.25 µg/mL (≈ 0.506 µM) in the data set on Staphylococcus aureus [1]; 16 µg/mL (≈ 32.4 µM) in the data set on Enterococcus faecalis; 0.5 µg/mL (≈ 1.01 µM) with Staphylococcus aureus [2]; 0.5 µg/mL (≈ 1.01 µM) in data set [3]. Besides, the MIC in the data set with Streptococcus agalactiae was 0.125 µg/mL (≈ 0.253 µM).
